Values quoted from earlier work in US20050106263A1, “Green tea, multivitamin, mineral and herb based hair and male facial skin formulas” (priority 2003, published 2005).

Key:
[1] = in vivo
hair loss = settings: comparison drug, general statement

| SMILES | oral bioavailability [1] | effect on front hairline (hair loss) | persistence of effect after use is stopped (hair loss) |
| --- | --- | --- | --- |
| O=C(O[C@@H]1Cc2c(O)cc(O)cc2O[C@@H]1c1cc(O)c(O)c(O)c1)c1cc(O)c(O)c(O)c1 [EGCG, epigallocatchin-3-gallate] | low oral bioavailability | – | – |
| Nc1cc(N2CCCCC2)nc(N)[n+]1[O-] [Rogaine] | – | does not work well on the front hairline | must be continually used or its effects will not only cease but will reverse |
